Tests used:
[1] = system: hApoE2 KI mice; test: hApoE2 KI mice on Western diet, 12 weeks, hepatic gene expression by quantitative RT-PCR; type: in vivo; settings: 12 weeks in Western diet, Cpd 29 0.3 mg/kg/day
Description: The compounds of the General Formula (I) were tested in vivo in a high fat diet mice model. Dyslipidemic “humanized” ApoE2 knock-in mice (hApoE2 KI) were fed a Western diet and treated during 12 weeks. The compounds of interest, including the Compound 29 of WO 2004/005233 at 0.3 mg/kg/day and the Fenofibrate at 100 mg/kg/day (used as a reference compound) were incorporated into the diet. At the end of the protocol, animals were sacrificed, livers were harvested and the hepatic expression of genes that are known to be implicated in the liver inflammation and the fibrosis processes were evaluated by quantitative RT-PCR (Panels A-D). Statistical analysis was performed as indicated for FIG. 1.
Female hApoE2 knock-in (KI) transgenic mice (Sullivan et al., 1998)(4 weeks of age). Mice were kept on a 12-hour light/dark cycle at a constant temperature of 20±3° C. After a 1 week acclimation, mice were separated in groups of 7-10 animals selected such as the distribution of their body weight and plasmatic lipid levels determined before the experiment were uniform. Animals were fed a Western diet (20% saturated fat and 0.2% cholesterol, Harlan Teklad TD88137) at weaning and during 12 weeks. Compounds of interest (Cpd 29 at 0.3 mg/kg/day and Fenofibrate at 100 mg/kg/day) were incorporated in the Western diet (SAFE, Augy, France) and administrated to mice during 12 weeks. Control animals received Western diet only. Animals had access to food and water ad libitum.
At the end of the studies, the animals were weighed and sacrificed under anesthesia. Blood was collected from the retro-orbital sinus; plasma was obtained by centrifugation (4 000 rpm, at 4° C. for 15 min) and subsequently frozen and stored at −20° C. Tissues and livers were isolated and snap-frozen in liquid nitrogen and stored at −80° C. for subsequent analysis (gene expression and biochemistry) or fixed in 4% paraformaldehyde for histology.
Total RNA was isolated from frozen livers using the NucleoSpin® 96 RNA kit (Macherey Nagel), according to the manufacturer's instructions. Reverse transcription was performed on 1 μg of total RNA by action of 1 μl of MMLV-RT enzyme (Invitrogen) during 1 hour at 37° C. in a total volume of 30 μl. […] Quantitative PCR was then carried out using the MyiQ Single-Color Real-Time PCR Detection System (Biorad). […]
The quantity of fluorescence emitted is directly proportional to the quantity of complementary DNA present at the start of the reaction and amplified during the PCR. The relative levels of expression were determined using the standard curve for each transcript. […] The induction factor, i.e. the ratio between the relative signal induced by the compound according to the invention and the average of the values relating to the control group, was then calculated for each sample. […]

[2] = system: patients suffering from atherogenic dyslipidaemia and abdominal obesity; test: First pilot double-blind placebo-controlled randomized study, Cpd 29 80 mg/day, 28 days; type: in vivo, human; settings: 80 mg/day oral
Description: (§1) 1-[4-methylthiophenyl]-3-[3,5-dimethyl-4-carboxydimethylmethyloxyphenyl]prop-2-en-1-one (Cpd 29 of WO 2004/005233) has been formulated as hard shell capsules containing 5, 10 or 20 mg of the compound. The compound (80 mg) was administered orally once daily for 28 days. The study has been performed in two parallel groups in double-blind conditions: placebo or Cpd 29 of WO 2004/005233.
(§2) The tolerability and safety of once-a-day administrations, as well as the efficacy in improving plasma lipids and glucose homeostasis compared with placebo, were evaluated in two pilot trials using relevant biochemical parameters. The data were used to calculate the percentage of change due to the compound when compared to the placebo after 28 days of treatment.
(§3) A first pilot, double-blind, placebo controlled, randomized study has been performed in patients suffering from atherogenic dyslipidaemia and abdominal obesity for assessing the tolerability and safety of once-a-day administrations of oral doses of Cpd 29 of WO 2004/005233 (at the dose of 80 mg/day), as well as the efficacy on plasma triglycerides and HDL-cholesterol (primary objectives).

[3] = system: patients suffering from impaired fasting glucose, impaired glucose tolerance and abdominal obesity; test: Second pilot double-blind placebo-controlled randomized study, Cpd 29 80 mg/day, 28 days; type: in vivo, human; settings: 80 mg/day oral
Description: as §1, §2
as §3, with “second” for “first”, “impaired fasting glucose, impaired glucose tolerance” for “atherogenic dyslipidaemia”, “glucose” for “plasma triglycerides”, “lipid metabolism.” for “HDL-cholesterol (primary objectives).”

[4] = relative to the placebo group, p<0.01

## 1-[4-methylthiophenyl]-3-[3,5-dimethyl-4-carboxydimethylmethyloxyphenyl]prop-2-en-1-one [Cpd 29]
[1]; Fenofibrate 100 mg/kg/day, FIG. 3D
  hepatic expression of Col1a1 (collagen genes): statistically significant inhibition
[1]; FIG. 3A
  hepatic expression of TNFα: inhibited
[1]; FIG. 3B
  hepatic expression of CCL5: inhibited
[1]; FIG. 3C
  hepatic expression of TGFβ: inhibited
[2]
  effect on Homocystein (cardiovascular risk factor): lack of effect
[2]; p<0.001
  reduction of Gamma Glutamyl transpeptidase level: 23%
[2]; p<0.01
  liver acute phase inflammation marker fibrinogen: reduction
  liver acute phase inflammation marker haptoglobin: reduction
  reduction of Alanine aminotransferase level: 13%
[2]; [4]
  increase in good cholesterol (HDL-C) level: 9%
  reduction of plasma triglycerides: 21%
[3]
  LDL-C: reduced
[3]; p<0.001
  plasma triglycerides, change relative to placebo: −25%
[3]; p<0.01
  HDL-C, change relative to placebo: +9%
  fasting insulinemia, change relative to placebo: −25%
  insulin resistance index, HOMA-IR, change relative to placebo: −31%
  liver acute phase inflammation marker haptoglobin: reduction
  reduction of Gamma Glutamyl transpeptidase level: 15%
[3]; p<0.05
  fasting plasma glucose, change relative to placebo: −5%

Source: US10722575B2, “Use of 1,3-diphenylprop-2-en-1-one derivatives for treating liver disorders” (GENFIT, priority 2009, dated 2020)
